2 compounds from publication PMC6842059 (ChemMedChem, 2019) can be followed below.

Some results are limits rather than exact numbers.

The nature of one data set: in vitro. As to conditions: human.

In “in vitro”, `CC(C)CN(C[C@@H](O)[C@H](Cc1ccccc1)NC(=O)O[C@H]1CO[C@H]2OCC[C@H]21)S(=O)(=O)c1ccc(B(O)O)cc1` [Inhibitor 5, (4-(N-((2R,3S)-3-(((((3R,3aS,6aR)-hexahydrofuro[2,3-b]furan-3-yl)oxy)carbonyl)amino)-2-hydroxy-4-phenylbutyl)-N-isobutylsulfamoyl)phenyl)boronic acid] showed a CC50 greater than 100 µM. Further, the “selectivity index (CC50/IC50)” value in the data set with MT-2 cells is > 2,040.

Regarding `CC(C)CN(C[C@@H](O)[C@H](Cc1ccccc1)NC(=O)O[C@H]1C2CO[C@H]3OC[C@@H]1C3C2)S(=O)(=O)c1ccc(B(O)O)cc1` (stereo partly drawn) [Inhibitor 6, (4-(N-((2R,3S)-3-(((((3S,7aS,8S)-Hexahydro-4H-3,5-methanofuro[2,3-b]pyran-8-yl)oxy)carbonyl)amino)-2-hydroxy-4-phenylbutyl)-N-isobutylsulfamoyl)phenyl)boronic acid], the CC50 in the data set “in vitro” was greater than 100 µM. Moreover, the “selectivity index (CC50/IC50)” value in the data set with MT-2 cells was > 2,650.
